Laboratory results reported in ChEMBL document CHEMBL1201862, “PubChem BioAssay data set” (2004).
Active and inactive are the calls of the source.

Assays:
[1] = test system: SN12K1; experiment: cells; format: functional; details: Homo sapiens
[2] = test system: P388/ADR; experiment: cells; format: functional; details: Mus musculus
[3] = test system: P388; experiment: cells; format: functional; details: Mus musculus
[4] = off-target signal loss in HeLa-CEM21 co-culture – HeLa F-luc CTL cells, cherry-picked, counter-screen for HIV-1 Env fusion inhibitor project, dose response (AID 652040); format: functional, cell-based;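 note: potency for signal decrease marking cytotoxic or nonspecific inhibition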
[5] = HIV-1 AD8 envelope cell-cell fusion blockers – cherry-pick, dose response (AID 652062); format: functional, cell-based;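 note: luciferase signal from cell-cell fusion driven by HIV-1 clade B AD8 Env; potency is for inhibitors of fusion seen as a drop in luminescence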
[6] = biological target: T1, Carboxy-terminal domain RNA polymerase II polypeptide A small phosphatase 1 (Homo sapiens, UniProt Q9GZU7); experiment: CTDSP1 inhibitors, concentration-response, biochemical, absorbance readout, ultra-high-throughput screen actives (AID 540297); format: functional
T1 sequence (Q9GZU7 whole entry): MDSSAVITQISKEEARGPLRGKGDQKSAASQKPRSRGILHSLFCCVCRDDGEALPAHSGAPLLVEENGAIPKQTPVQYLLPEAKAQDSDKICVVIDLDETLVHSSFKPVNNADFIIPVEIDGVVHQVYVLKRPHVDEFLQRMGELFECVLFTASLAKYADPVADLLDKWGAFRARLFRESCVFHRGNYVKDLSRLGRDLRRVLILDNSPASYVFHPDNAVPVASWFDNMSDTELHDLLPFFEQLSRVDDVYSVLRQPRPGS

[7] = A cytotoxicity screen of small molecule inhibitors of the PhoP region in Salmonella typhi identified in the primary screen. [Related pubchem assays: 1850, 1864, 1985 ]; format: functional
[8] = biological target: Nonstructural protein 1 (Influenza A virus, UniProt Q194T2); format: functional, Influenza A virus (A/California/07/2009(H1N1))
[9] = biological target: T2, Leucine aminopeptidase (Plasmodium falciparum 3D7, UniProt Q8IL11); experiment: P. falciparum M17LAP inhibitors, primary screen, biochemical, fluorogenic H-Leu-NHMec substrate, 1536-well (AID 1619); format: functional
T2 sequence (Q8IL11 whole entry): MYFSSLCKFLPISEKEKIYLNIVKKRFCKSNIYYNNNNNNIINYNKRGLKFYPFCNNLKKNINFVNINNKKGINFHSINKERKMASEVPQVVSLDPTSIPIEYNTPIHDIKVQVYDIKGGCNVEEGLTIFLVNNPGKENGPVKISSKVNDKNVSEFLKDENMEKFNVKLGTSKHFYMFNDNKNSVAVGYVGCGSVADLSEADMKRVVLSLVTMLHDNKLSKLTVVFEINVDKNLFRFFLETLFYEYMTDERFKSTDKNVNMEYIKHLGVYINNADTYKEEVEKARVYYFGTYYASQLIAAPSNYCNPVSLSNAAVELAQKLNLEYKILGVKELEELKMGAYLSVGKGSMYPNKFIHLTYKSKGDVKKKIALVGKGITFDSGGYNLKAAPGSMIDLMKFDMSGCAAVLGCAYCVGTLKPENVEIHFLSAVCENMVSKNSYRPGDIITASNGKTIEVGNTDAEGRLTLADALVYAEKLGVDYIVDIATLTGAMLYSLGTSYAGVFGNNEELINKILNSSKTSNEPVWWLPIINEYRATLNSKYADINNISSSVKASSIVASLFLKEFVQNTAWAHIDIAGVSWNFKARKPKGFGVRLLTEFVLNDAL

[10] = test system: Streptococcus; experiment: GAS UMAA2166 growth inhibition – luminescence, BacTiterGlo, counter-screen for streptokinase expression inhibitor project, dose response (AID 1915); format: functional, organism-based;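 note: potency for reduction of bacterial viability or growth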
[11] = test system: Streptococcus sp. 'group A'; experiment: Streptococcus pyogenes SK(-)GAS viability under kanamycin – luminescence, BacTiterGlo, confirmation, counter-screen for streptokinase expression inhibitor project, dose response (AID 1900); format: functional, organism-based
[12] = microbe, parasite or virus in culture; format: functional; details: Mycobacterium tuberculosis
[13] = biological target: Prothrombin (Homo sapiens, UniProt P00734); experiment: Thrombin 1536 HTS Dose Response Confirmation. [Related pubchem assays: 1046 (Thrombin 1536 HTS; hits were confirmed in this assay)]; format: functional
[14] = biological target: T3, Protein skinhead-1 (Caenorhabditis elegans, UniProt P34707); format: functional
T3 sequence (P34707 whole entry): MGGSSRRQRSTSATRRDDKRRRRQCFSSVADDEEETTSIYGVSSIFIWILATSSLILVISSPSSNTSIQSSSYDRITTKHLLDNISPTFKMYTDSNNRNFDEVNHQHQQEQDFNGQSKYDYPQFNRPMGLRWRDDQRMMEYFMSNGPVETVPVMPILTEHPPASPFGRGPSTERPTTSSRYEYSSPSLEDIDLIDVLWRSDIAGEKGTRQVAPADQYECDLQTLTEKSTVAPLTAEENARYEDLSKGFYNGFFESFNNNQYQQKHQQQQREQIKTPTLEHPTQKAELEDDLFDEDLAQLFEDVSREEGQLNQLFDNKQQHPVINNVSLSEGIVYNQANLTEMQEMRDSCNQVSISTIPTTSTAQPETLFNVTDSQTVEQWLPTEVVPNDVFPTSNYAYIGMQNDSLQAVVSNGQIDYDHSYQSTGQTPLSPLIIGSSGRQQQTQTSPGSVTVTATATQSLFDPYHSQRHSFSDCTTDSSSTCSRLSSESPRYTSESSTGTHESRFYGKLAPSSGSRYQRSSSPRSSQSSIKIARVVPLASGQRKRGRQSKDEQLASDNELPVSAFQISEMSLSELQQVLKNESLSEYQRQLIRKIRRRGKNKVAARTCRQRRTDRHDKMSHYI

[15] = biological target: T4, Zinc finger protein mex-5 (Caenorhabditis elegans, UniProt Q9XUB2); experiment: potency of MEX-5 RNA-binding blockers – biochemical, C. elegans, fluorescence polarization, dose response (AID 1960)
T4 sequence (Q9XUB2 whole entry): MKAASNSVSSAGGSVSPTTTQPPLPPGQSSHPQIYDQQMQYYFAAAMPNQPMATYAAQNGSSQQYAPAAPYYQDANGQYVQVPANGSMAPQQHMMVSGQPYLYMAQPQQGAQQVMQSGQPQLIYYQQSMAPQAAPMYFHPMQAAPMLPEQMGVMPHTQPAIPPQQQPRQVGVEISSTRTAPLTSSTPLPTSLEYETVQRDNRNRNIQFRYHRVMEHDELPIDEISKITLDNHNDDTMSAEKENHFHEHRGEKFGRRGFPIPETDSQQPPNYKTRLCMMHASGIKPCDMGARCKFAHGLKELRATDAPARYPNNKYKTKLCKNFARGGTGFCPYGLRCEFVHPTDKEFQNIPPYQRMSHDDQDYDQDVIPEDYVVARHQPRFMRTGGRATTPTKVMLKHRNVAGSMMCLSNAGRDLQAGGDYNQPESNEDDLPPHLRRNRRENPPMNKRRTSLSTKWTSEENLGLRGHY

[16] = biological target: T5, RNA-binding protein pos-1 (Caenorhabditis elegans, UniProt G5EF15); experiment: disruptors of C. elegans POS-1 RNA interaction – biochemical, fluorescence polarization, dose response (AID 1964);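 note: purified POS-1 fused to maltose binding protein made in E. coli; potency of compounds blocking POS-1 binding to fluorescent RNA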
T5 sequence (G5EF15 whole entry): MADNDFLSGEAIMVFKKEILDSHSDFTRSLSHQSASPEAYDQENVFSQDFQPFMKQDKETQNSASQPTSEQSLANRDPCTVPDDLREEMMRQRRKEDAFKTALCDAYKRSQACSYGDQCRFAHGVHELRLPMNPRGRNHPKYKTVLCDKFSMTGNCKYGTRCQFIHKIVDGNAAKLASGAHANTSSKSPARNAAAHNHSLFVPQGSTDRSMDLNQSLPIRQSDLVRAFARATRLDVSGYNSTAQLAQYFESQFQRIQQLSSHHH

[17] = biological target: Prothrombin (Bos taurus, UniProt P00735); experiment: thrombin protease inhibitors – biochemical, fluorescence polarization, uHTS hits, dose response (AID 602369); format: functional
[18] = biological target: 72 kDa type IV collagenase (Homo sapiens, UniProt P08253); experiment: Dose Response validation of uHTS RPN11 inhibitor hits using a MMP-2 Fluorescence assay.; format: functional
[19] = biological target: 26S proteasome non-ATPase regulatory subunit 14 (Homo sapiens, UniProt O00487); experiment: inhibition of proteasome subunit RPN11 – biochemical, fluorescence polarization, uHTS hits, confirmation (AID 602368); format: functional
Chain of 26S proteasome non-ATPase regulatory subunit 14 (O00487 whole entry): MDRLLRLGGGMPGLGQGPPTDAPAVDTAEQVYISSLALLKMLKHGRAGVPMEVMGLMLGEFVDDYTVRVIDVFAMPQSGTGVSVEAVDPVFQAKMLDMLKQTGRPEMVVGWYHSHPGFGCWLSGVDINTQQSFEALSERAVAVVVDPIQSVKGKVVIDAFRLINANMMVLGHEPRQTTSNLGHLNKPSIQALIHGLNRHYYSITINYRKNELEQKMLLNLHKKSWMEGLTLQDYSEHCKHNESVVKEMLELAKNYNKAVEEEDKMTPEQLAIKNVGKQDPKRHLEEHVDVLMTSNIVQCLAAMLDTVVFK

Chain of 72 kDa type IV collagenase (P08253 whole entry): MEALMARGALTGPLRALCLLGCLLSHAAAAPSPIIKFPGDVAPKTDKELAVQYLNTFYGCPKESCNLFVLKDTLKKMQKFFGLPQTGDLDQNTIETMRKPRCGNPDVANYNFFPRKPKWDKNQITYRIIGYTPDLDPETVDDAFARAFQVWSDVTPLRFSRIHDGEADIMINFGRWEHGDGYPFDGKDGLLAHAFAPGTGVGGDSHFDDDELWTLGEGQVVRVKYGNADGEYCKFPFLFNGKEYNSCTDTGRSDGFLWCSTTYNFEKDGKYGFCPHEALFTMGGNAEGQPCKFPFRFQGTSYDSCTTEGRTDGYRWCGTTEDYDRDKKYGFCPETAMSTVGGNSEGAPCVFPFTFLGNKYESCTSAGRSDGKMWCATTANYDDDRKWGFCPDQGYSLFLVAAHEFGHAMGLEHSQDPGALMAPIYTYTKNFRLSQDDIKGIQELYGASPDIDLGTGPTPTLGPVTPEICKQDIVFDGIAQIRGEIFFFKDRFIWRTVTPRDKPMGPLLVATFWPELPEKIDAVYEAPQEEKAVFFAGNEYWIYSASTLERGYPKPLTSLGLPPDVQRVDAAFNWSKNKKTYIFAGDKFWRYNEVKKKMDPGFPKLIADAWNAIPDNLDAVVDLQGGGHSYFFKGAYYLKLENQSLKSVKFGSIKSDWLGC
Chain of Nonstructural protein 1 (Q194T2 whole entry): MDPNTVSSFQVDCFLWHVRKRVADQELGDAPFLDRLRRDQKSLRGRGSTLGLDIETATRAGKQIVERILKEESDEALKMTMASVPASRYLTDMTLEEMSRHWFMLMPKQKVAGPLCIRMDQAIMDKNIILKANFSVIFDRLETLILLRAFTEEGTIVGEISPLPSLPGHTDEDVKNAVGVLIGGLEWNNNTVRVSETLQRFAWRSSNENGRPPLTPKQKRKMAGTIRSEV

## Cc1c2cc[n+](C)cc2c(C)c2c1[nH]c1ccccc12
[1]
  GI50: 0.416 µM (active)
[2]
  GI50: 55.5 µM (inactive)
[3]
  GI50: 0.887 µM (active)

## Cn1cccc1C(=O)OCC(=O)NCCc1ccc(S(N)(=O)=O)cc1
[4]
  AC50: > 70 µM (inactive)
[5]
  AC50: 7.13 µM (active)

## O=C1Nc2ccc(S(=O)(=O)NCc3ccccn3)c3cccc1c23
[6]
  IC50: 8.42 µM (active)

## CC(NCc1ccc(Cl)cc1)C(O)c1ccccc1 (stereo not drawn)
[7]
  EC50: > 50 µM (active)

## COC(=O)c1ccc(NC(S)=NNC(=O)c2ccccc2)cc1
[7]
  EC50: > 50 µM (active)

## O=C(Nc1ccc2[nH]c(-c3ccc(Br)o3)nc2c1)c1ccco1
[7]
  EC50: > 50 µM (active)

## Cc1cc(N2CCN(C3CCCCC3)CC2)nc2cccc(O)c12
[8]
  IC50: > 100 µM (active)
[7]
  EC50: > 50 µM (active)

## Cc1nnc(SCC2=C(C(=O)O)N3C(=O)C(NC(=O)Cn4nc(C(F)F)c(Cl)c4C)C3SC2)s1 (stereo not drawn)
[9]
  IC50: 13.9 µM (active)
[10]
  EC50: 0.228 µM (active)
[11]
  EC50: < 0.06 µM (active)

## Cc1cccc(-n2ccnc2CN2CCN(C3CCCC3)C(CCO)C2)c1 (stereo not drawn)
[7]
  EC50: > 50 µM (active)

## CSc1ccc(/C=C(\C(=O)O)c2ccc(S(=O)(=O)N3CCCC3)s2)cc1
[6]
  IC50: 5.2 µM (active)

## NC(=NOC(=O)c1cccc([N+](=O)[O-])c1)c1cccc([N+](=O)[O-])c1
[6]
  IC50: 11.2 µM (active)

## O=C1CN(CC(=O)N2CCCCC2)c2ccccc2O1
[12]
  CC50: 38.6 µM (active)

## CC(=O)OCC1(C)CN(c2ccccc2)N(C(=O)c2ccc(C(C)(C)C)cc2)C1=O (stereo not drawn)
[13]
  IC50: 18 µM (active)

## C[N@+]12CC[C@H](CC1)C(=C(c1ccccc1)c1ccccc1)C2
[6]
  IC50: 3.04 µM (active)

## Cc1c2c(cc3c1[nH]c1ccccc13)C(c1ccc(Cl)cc1)=NCC2
[1]
  GI50: 0.284 µM (active)
[2]
  GI50: 0.428 µM (active)
[3]
  GI50: 0.398 µM (active)

## O=C(CSc1nc(O)cc(-c2ccccc2)n1)Nc1ccccn1
[9]
  IC50: 8.69 µM (active)

## Cc1cc(NC(=O)Cc2ccsc2)ccc1Br
[14]
  IC50: > 100 µM (inactive)

## Nc1ccc2cc(S(=O)(=O)O)cc(O)c2c1/N=N/c1ccc(NC(=O)Nc2ccc(/N=N/c3c(N)ccc4cc(S(=O)(=O)O)cc(O)c34)c(S(=O)(=O)O)c2)cc1S(=O)(=O)O
[1]
  GI50: > 100 µM (inactive)
[2]
  GI50: 95.5 µM (inactive)
[3]
  GI50: 45.2 µM (inactive)

## O=C(O)CSCC(=O)NCc1cccc(C(F)(F)F)c1
[13]
  IC50: > 50 µM (not active)

## N=c1c(C(=O)NC2CCCCC2)cc2c(=O)n3ccccc3nc2n1Cc1ccc(F)cc1
[15]
  EC50: 13.3 µM (active)
[16]
  EC50: > 300 µM (not active)
[12]
  CC50: > 40 µM (active)

## COc1nc(C(Cl)(Cl)Cl)c(Cl)c(OC)c1Cl [PENCLOMEDINE]
[1]
  GI50: 28.3 µM (inactive)
[2]
  GI50: 40.6 µM (inactive)
[3]
  GI50: 8.61 µM (inactive)

## CCOC(=O)N1CCN(CCC(=O)c2ccc(Br)cc2)CC1
[7]
  EC50: > 50 µM (active)

## COC(c1ccccc1)c1nnc(CCC(=O)N(C)Cc2cccc(-n3cccn3)c2)o1 (stereo not drawn)
[13]
  IC50: > 50 µM (not active)

## N/C(=N\O)N/N=C/c1cc2c(cc1Cl)OCO2
[1]
  GI50: 31.3 µM (inactive)
[2]
  GI50: 23.7 µM (inactive)
[3]
  GI50: 29.3 µM (inactive)

## COc1cc(CN2c3ccccc3C(=O)CS2(=O)=O)cc(OC)c1
[17]
  IC50: > 100 µM (inactive)
[18]
  IC50: > 100 µM (inactive)
[19]
  IC50: > 100 µM (inactive)

## C=CCn1c(SCC(=O)NCc2ccc3c(c2)OCO3)nnc1C1COc2ccccc2O1 (stereo not drawn)
[9]
  IC50: < 1 µM (active)

## COc1ccc(NC(=O)Cn2c(-c3ccc(OC)cc3)cn(-c3ccc(C)cc3)c2=O)cc1
[17]
  IC50: 48.5 µM (active)
[18]
  IC50: > 100 µM (inactive)
[19]
  IC50: 35.2 µM (active)

## CCc1c(O)cc(=O)n(-c2ccccc2)c1-c1ccccc1
[9]
  IC50: 23.5 µM (active)

## O=C(C1CCCCC1)N1CCN(S(=O)(=O)c2ccc(Cl)cc2)CC1
[14]
  IC50: > 100 µM (inactive)

## O=C(COC(=O)c1cncc(Br)c1)Nc1nnc(-c2ccccc2)o1
[6]
  IC50: 6.29 µM (active)

## CCOC(=O)CSC1=N/C(=C/c2ccc(-n3cncn3)cc2)C(=O)N1C(C)=O
[13]
  IC50: 0.942 µM (active)

## O=C(CCCN1CCC(C(O)c2ccc(F)cc2)CC1)c1ccc(F)cc1 (stereo not drawn)
[1]
  GI50: 56.4 µM (inactive)
[2]
  GI50: 46.1 µM (inactive)
[3]
  GI50: 38.3 µM (inactive)

## COc1cc(S(=O)(=O)N2CCOCC2)ccc1NC(=O)COC(=O)c1ccccn1
[13]
  IC50: 0.545 µM (active)

## CO[C@H]1CN(C)C(=O)c2cc(NC(=O)C3CCOCC3)ccc2OC[C@H](C)N(Cc2nccs2)C[C@H]1C
[4]
  AC50: 43.3 µM (active)
[5]
  AC50: 24.9 µM (active)

## C=CCN1C(=O)/C(=C\Nc2cccc([N+](=O)[O-])c2)C(=O)N(CCCC)C1=O
[17]
  IC50: 42.7 µM (active)
[18]
  IC50: > 100 µM (inactive)
[19]
  IC50: 34 µM (active)

## O=C(CCn1c(=O)c2cccn2c2cccnc21)N1CCN(c2cccc(Cl)c2)CC1
[12]
  CC50: > 40 µM (active)

## N=C(NOC(=O)COc1ccc2ccccc2c1)c1ccccn1
[7]
  EC50: > 50 µM (active)

## Brc1ccc(Oc2nnnn2-c2ccccc2)cc1
[14]
  IC50: 35.1 µM (active)
